Measurements as given in patent US20100120848A1, “STABLE PHARMACEUTICAL FORMULATIONS OF MONTELUKAST SODIUM” (Teva Pharmaceutical Industries Ltd., priority 2006, published 2010).

Test: Excipient compatibility: montelukast sodium/excipient mixtures stored at 55° C. for 48 hours, sulfoxide of formula (I) by HPLC
Format: physicochemical
Details: for % Sulfoxide of Formula (I), 0 hours: by weight relative to montelukast sodium, before storage
Protocol: Comparative testing with montelukast sodium was performed to determine the conditions which cause the degradation of montelukast sodium into the corresponding sulfoxide. Compositions of montelukast sodium and each of the excipients of the prior art tablets were prepared and subjected to stressed storage conditions. The amount of the corresponding sulfoxide present in each of the compositions was measured by high performance liquid chromatography (“HPLC”) both before and after storage.
Sample mixtures of montelukast sodium and each of the individual excipients were prepared. Each sample was stored at 55° C. for 48 hours. The percentage by weight of sulfoxide of formula (I) relative to montelukast sodium in each sample was measured at 0 hours and at 48 hours by HPLC. HPLC was performed on a Beta-Basic C18 analytical column (150×4.6 mm I.D.), packed with 5 μm diameter particles (Thermo Election Corporation). The mobile phase was a mixture of acetonitrile and 20 mM KH2PO4 (60:40) and its flow-rate was 1.5 mL/min. The UV detector was set at 225 nm or 281 nm and the column temperature was 40° C.

Row | Compound | % Sulfoxide of Formula (I), 0 hours [%] | increase of the amount of the corresponding sulfoxide in the composition over the storage period (in the presence of microcrystalline cellulose, stressed storage conditions)
1 | CC(C)(O)c1ccccc1CC[C@@H](SCC1(CC(=O)[O-])CC1)c1cccc(/C=C/c2ccc3ccc(Cl)cc3n2)c1.[Na+] [Sample 1, Montelukast sodium] | 0.63 | 
2 | CC(C)(O)c1ccccc1CC[C@@H](SCC1(CC(=O)[O-])CC1)c1cccc(/C=C/c2ccc3ccc(Cl)cc3n2)c1.[Na+] [Sample 7, Montelukast sodium] | 0.26 | 
3 | CC(C)(O)c1ccccc1CC[C@@H](SCC1(CC(=O)[O-])CC1)c1cccc(/C=C/c2ccc3ccc(Cl)cc3n2)c1.[Na+] [montelukast sodium, [R-(E)]-1-[[[1-[3-[2-(7-chloro-2-quinolinyl)ethenyl]phenyl]-3-[2-(1-hydroxy-1-methylethyl)phenyl]propyl]thio]methyl]cyclopropaneacetic acid, monosodium salt] |  | over 250%
